{
  "source": "patent US20030176479A1",
  "about": "“Use of selective EP4 receptor agonists for the treatment of liver failure, loss of patency of the ductus arteriosus, glaucoma or ocular hypertension” (priority 2002, published 2003)",
  "molecular_target": "T1, human EP1 receptor (Homo sapiens, UniProt P34995)",
  "T1 construct": "expressed in transfected cells",
  "T1 sequence (P34995 1-402)": "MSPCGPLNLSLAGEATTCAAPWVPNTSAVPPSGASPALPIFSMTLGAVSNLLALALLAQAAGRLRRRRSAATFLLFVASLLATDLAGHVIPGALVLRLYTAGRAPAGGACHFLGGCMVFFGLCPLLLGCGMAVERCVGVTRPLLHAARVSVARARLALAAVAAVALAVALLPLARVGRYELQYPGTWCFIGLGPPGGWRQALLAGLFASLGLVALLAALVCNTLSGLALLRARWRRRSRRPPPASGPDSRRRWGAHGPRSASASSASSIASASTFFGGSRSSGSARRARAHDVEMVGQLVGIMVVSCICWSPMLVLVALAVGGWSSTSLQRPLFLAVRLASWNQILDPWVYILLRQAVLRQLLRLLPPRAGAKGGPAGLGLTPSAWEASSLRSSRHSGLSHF",
  "assay": "Human EP1 receptor binding assay (3H-PGE2 displacement, 293S cell membranes)",
  "settings": "displacement of 3H-prostaglandin E2, 293S membranes, 1 hour at 25° C.",
  "from_the_text": "The compounds of Formula I or II, which are useful in the methods of the present invention, bind to the prostaglandin E2 type 4 receptor (EP4 receptor). The full-length coding sequence for the human EP1 receptor is made in accordance with the procedure in Funk et al., Journal of Biological Chemistry, 1993, 268, 26767-26772. The full-length rat EP2 receptor is made in accordance with the procedure in Nemoto et al., Prostaglandins and other Lipid Mediators, 1997, 54, 713-725. The full-length coding sequence for the human EP3 receptor is made in accordance with the procedure in Regan et al., British Journal of Pharmacology, 1994, 112, 377-385. The full-length coding sequence for the rat EP4 receptor is made in accordance with the procedure in Sando et al., Biochem. Biophys. Res. Comm. 1994, 200,1329-1333. These full-length receptors are used to prepare 293S cells expressing the human EP1, rat EP2, human EP3 or rat EP4 receptors.\nHuman EP1, Rat EP2, Human EP3, Rat EP4 Receptor Binding Assay\nThe full-length receptors described above are used to prepare 293S cells expressing the EP1, EP2, EP3, and EP4 receptors.\n293S cells expressing either the human EP1, rat EP2, human EP3 or rat EP4 prostaglandin E2 receptors are generated according to methods known to those skilled in the art. Typically, PCR (polymerase chain reaction) primers corresponding to the 5′ and 3′ ends of the published full length receptor are made according to the well known methods disclosed above and are used in an RT-PCR (reverse transcriptase-polymerase chain reaction) reaction using the total RNA from human kidney (for EP1), rat kidney (for EP2), human lung (for EP3), or rat kidney (EP4) as a source. PCR products are cloned by the TA overhang method into pCR2.1 (Invitrogen Corporation, Carlsbad, Calif.) and identity of the cloned receptor is confirmed by DNA sequencing. For expression of the rat EP2 receptor, the confirmed cDNA is subcloned into the mammalian expression vector PURpCl, a vector generated by subcloning the selectable marker for puromycin resistance into the mammalian expression vector pCl (Promega, Madison, Wis.)\n293S cells are transfected with either the cloned human EP1 or EP3 receptor in pcDNA3 by electroporation. Stable cell lines expressing either the human EP1 or EP3 receptor are established following selection of transfected cells with G418. 293S cells are transfected with the cloned rat EP2 receptor in PURpCi by lipid mediated transfection. Stable cell lines expressing the rat EP2 receptor are established following selection of transfected cells with puromycin. 293S cells are transfected with the cloned rat EP4 receptor in pcDNA3 by lipid mediated transfection. Stable cell lines expressing the rat EP4 receptor are established following selection of transfected cells with Geneticin® (Invitrogen, Carlsbad, Calif.).\nClonal cell lines expressing the maximal number of receptors are chosen following a whole cell ^3H-PGE2 binding assay using unlabeled PGE2 as a competitor.\nMembrane Preparation: All operations are performed at 4° C. Transfected cells expressing either prostaglandin E2 type 1, type 2, type 3, or type 4 (EP1, EP2, EP3, or EP4, respectively) receptors are harvested and suspended to 2 million cells per ml in Buffer A [50 mM Tris-HCl (pH 7.4), 10 mM MgCI2, 1 mM EDTA, 1 mM Pefabloc peptide, (Boehringer Mannheim Corp., Indianapolis, Ind.), 10 uM Phosporamidon peptide, (Sigma, St. Louis, Mo.), 1 uM pepstatin A peptide, (Sigma, St. Louis, Mo.), 10 uM elastatinal peptide, (Sigma, St. Louis, Mo.), 100 uM antipain peptide, (Sigma, St. Louis, Mo.)]. The cells are lysed by sonification with a Branson Sonifier (Branson Ultrasonics Corporation, Danbury, Conn.) in 2 fifteen-second bursts. Unlysed cells and debris are removed by centrifugation at 100 ×g for 10 min. Membranes are then harvested by centrifugation at 45,000×g for 30 minutes. […]",
  "data": [
    {"compound": "O=C(O)CCCCCCN1C(=O)CC[C@@H]1CC[C@@H](O)Cc1cccc(C(F)(F)F)c1", "note": "[Example 2, 7-{2S-[3R-hydroxy-4-(3-trifluoromethyl-phenyl)-butyl]-5-oxo-pyrrolidin-1-yl}-heptanoic acid]", "values": [
      {"measurement": "IC50", "result": "> 3.2", "unit": "µM"}
    ]},
    {"compound": "O=C(O)CCCCCCN1C(=O)CC[C@@H]1CC[C@@H](O)Cc1cccc(Cl)c1", "note": "[Example 1, 7-{2S-[4-(3-Chloro-phenyl)-3R-hydroxy-butyl]-5-oxo-pyrrolidin-1-yl}-heptanoic acid]", "values": [
      {"measurement": "IC50", "result": "> 3.2", "unit": "µM"}
    ]},
    {"compound": "O=C1CC[C@H](CCC(O)Cc2cccc(Cl)c2)N1CCCCCCc1nn[nH]n1", "note": "(stereo partly drawn) [Example 3, 5S-[4-(3-Chloro-phenyl)-3-hydroxy-butyl]-1-[6-(2H-tetrazol-5-yl)-hexyl]-pyrrolidin-2-one]", "values": [
      {"measurement": "IC50", "result": "> 3.2", "unit": "µM"}
    ]},
    {"compound": "O=C(O)CCCCCCN1C(=O)CCC1CCC(O)Cc1ccccc1", "note": "(stereo not drawn) [Example 9, 7-(2-(3-hydroxy-4-phenyl-butyl)-5-oxo-pyrrolidin-1-yl)-heptanoic acid]", "values": [
      {"measurement": "IC50", "result": "> 3.2", "unit": "µM"}
    ]},
    {"compound": "O=C1CC[C@H](CC[C@@H](O)Cc2cccc(C(F)(F)F)c2)N1CCCCCCc1nn[nH]n1", "note": "[Example 4, 5S-[3R-Hydroxy-4-(3-trifluoromethyl-phenyl)-butyl]-1-[6-(2H-tetrazol-5-yl)-hexyl]-pyrrolidin-2-one]", "values": [
      {"measurement": "IC50", "result": "> 3.2", "unit": "µM"}
    ]},
    {"compound": "O=C1CCC(CCC(O)Cc2cccc(-c3ccccc3)c2)N1CCCCCCc1nn[nH]n1", "note": "(stereo not drawn) [Example 6, 5-(4-Biphenyl-3-yl-3-hydroxy-butyl)-1-[6-(2H-tetrazol-5-yl)-hexyl]-pyrrolidin-2-one]", "values": [
      {"measurement": "IC50", "result": "> 3.2", "unit": "µM"}
    ]}
  ]
}
